Legend:
Format in all cases: in vivo
[1] = test system: smallflower flatsedge (Cyperus difformis); test: Test B flood test
Protocol: (§1) At the same time, these crop and weed species were also treated with postemergence applications of test chemicals formulated in the same manner. Plants ranged in height from 2 to 18 cm (1- to 4-leaf stage) for postemergence treatments. Plant species in the flood test consisted of rice (Oryza sativa), smallflower flatsedge (Cyperus difformis), duck salad (Heteranthera limosa) and bamyardgrass (Echinochloa crus-galli) grown to the 2-leaf stage for testing. Treated plants and controls were maintained in a greenhouse for twelve to sixteen days, after which all species were compared to controls and visually evaluated. Plant response ratings, summarized in Table B, are based on a scale of 0 to 10 where 0 is no effect and 10 is complete control. A dash (−) response means no test result.

rice (Oryza sativa) = test: Test B flood test
Protocol: as §1

[2] = test system: bamyardgrass (Echinochloa crus-galli); test: Test B flood test
Protocol: as §1

[3] = test system: duck salad (Heteranthera limosa); test: Test B flood test
Protocol: as §1

rape (Brassica napus) = test: Test B pre-/postemergence; design: key: 0 is no effect; 10 is complete control
Excerpt: (§2) Seeds of bedstraw (Galium aparine), blackgrass (Alopecurus myosuroides), broadleaf signalgrass (Brachiaria decumbens), cocklebur (Xanthium strumarium), corn (Zea mays), crabgrass (Digitaria sanguinalis), giant foxtail (Setaria faberii), lambsquarters (Chenopodium album), momingglory (Ipomoea hederacea), pigweed (Amaranthus retroflexus), rape (Brassica napus), soybean (Glycine max), sugar beet (Beta vulgaris), velvetleaf (Abutilon theophrasti), wheat (Triticum aestivum), wild oat (Avena fatua) and purple nutsedge (Cyperus rotundus) tubers were planted and treated preemergence with test chemicals formulated in a non-phytotoxic solvent mixture which included a surfactant.
as §1

corn (Zea mays) = test: Test B pre-/postemergence; design: key: 0 is no effect; 10 is complete control; conditions: for Corn plant response rating: Preemergence
Excerpt: as §2, §1

[4] = test system: velvetleaf (Abutilon theophrasti); test: Test B pre-/postemergence; design: key: 0 is no effect; 10 is complete control
Excerpt: as §2, §1

[5] = test system: crabgrass (Digitaria sanguinalis); test: Test B pre-/postemergence; design: key: 0 is no effect; 10 is complete control; conditions: for Crabgrass plant response rating: Preemergence
Excerpt: as §2, §1

[6] = test system: wheat (Triticum aestivum); test: Test B pre-/postemergence; design: key: 0 is no effect; 10 is complete control
Excerpt: as §2, §1

[7] = test system: giant foxtail (Setaria faberii); test: Test B pre-/postemergence; design: key: 0 is no effect; 10 is complete control
Excerpt: as §2, §1

[8] = test system: cocklebur (Xanthium strumarium); test: Test B pre-/postemergence; design: key: 0 is no effect; 10 is complete control; conditions: for Cocklebur plant response rating: Preemergence
Excerpt: as §2, §1

[9] = test system: broadleaf signalgrass (Brachiaria decumbens); test: Test B pre-/postemergence; design: key: 0 is no effect; 10 is complete control; conditions: for B. signalgrass plant response rating: Preemergence
Excerpt: as §2, §1

[10] = test system: bedstraw (Galium aparine); test: Test B pre-/postemergence; design: key: 0 is no effect; 10 is complete control; conditions: for Bedstraw plant response rating: Preemergence
Excerpt: as §2, §1

soybean (Glycine max) = test: Test B pre-/postemergence; design: key: 0 is no effect; 10 is complete control
Excerpt: as §2, §1

[11] = test system: momingglory (Ipomoea hederacea); test: Test B pre-/postemergence; design: key: 0 is no effect; 10 is complete control
Excerpt: as §2, §1

wild oat (Avena fatua) = test: Test B pre-/postemergence; design: key: 0 is no effect; 10 is complete control
Excerpt: as §2, §1

[12] = test system: blackgrass (Alopecurus myosuroides); test: Test B pre-/postemergence; design: key: 0 is no effect; 10 is complete control; conditions: for Blackgrass plant response rating: Preemergence
Excerpt: as §2, §1

[13] = test system: pigweed (Amaranthus retroflexus); test: Test B pre-/postemergence; design: key: 0 is no effect; 10 is complete control
Excerpt: as §2, §1

[14] = test system: sugar beet (Beta vulgaris); test: Test B pre-/postemergence; design: key: 0 is no effect; 10 is complete control
Excerpt: as §2, §1

[15] = Rate 62 g/ha, Postemergence (flood test)
[16] = Rate 125 g/ha, Postemergence section (flood test species)
[17] = Rate 250 g/ha, Postemergence (flood test species)
[18] = Rate 125 g/ha, Postemergence, flood test
[19] = Rate 250 g/ha, Postemergence (so in the source)

Compound: CCc1cnc(-n2cnc(C(F)(F)F)c2)nc1Cc1cccc(OC(F)(F)F)c1 [Compound 49]
- Plant response rating, S. Flatsedge [1, 15]: 4
- S. Flatsedge plant response rating [1, 16]: 4
- Plant response rating, S. Flatsedge [1, 17]: 9
- Plant response rating, Rice (rice (Oryza sativa); [15]): 3
- Rice plant response rating (rice (Oryza sativa); [16]): 4
- Plant response rating, Rice (rice (Oryza sativa); [17]): 5
- Plant response rating, Barnyardgrass [2, 15]: 5
- Plant response rating, Barnyardgrass [2, 18]: 5
- Plant response rating, Barnyardgrass [2, 17]: 6
- Plant response rating, Ducksalad [3, 15]: 4
- Plant response rating, Ducksalad [3, 18]: 4
- Plant response rating, Ducksalad [3, 17]: 4
- Plant response rating, Rape (rape (Brassica napus); Rate 62 g/ha, Postemergence): 9
- Rape plant response rating (rape (Brassica napus); Rate 62 g/ha, Preemergence): 7
- Rape plant response rating (rape (Brassica napus); Rate 125 g/ha, Postemergence): 9
- Rape plant response rating (rape (Brassica napus); Rate 125 g/ha, Preemergence): 8
- Plant response rating, Rape (rape (Brassica napus); Rate 250 g/ha, Postemergence): 9
- Plant response rating, Rape (rape (Brassica napus); [19]): 10
- Plant response rating, Corn (corn (Zea mays); Rate 62 g/ha, Postemergence): 3
- Corn plant response rating (corn (Zea mays); Rate 62 g/ha): 0
- Plant response rating, Corn (corn (Zea mays); Rate 125 g/ha, Postemergence): 3
- Corn plant response rating (corn (Zea mays); Rate 125 g/ha): 1
- Plant response rating, Corn (corn (Zea mays); Rate 250 g/ha, Postemergence): 4
- Plant response rating, Corn (corn (Zea mays); [19]): 1
- Plant response rating, Velvetleaf ([4]; Rate 62 g/ha, Postemergence): 8
- Velvetleaf plant response rating ([4]; Rate 62 g/ha, Preemergence): 3
- Velvetleaf plant response rating ([4]; Rate 125 g/ha, Postemergence): 8
- Plant response rating, Velvetleaf ([4]; Rate 125 g/ha, Preemergence): 8
- Plant response rating, Velvetleaf ([4]; Rate 250 g/ha, Postemergence): 9
- Plant response rating, Velvetleaf [4, 19]: 8
- Plant response rating, Crabgrass ([5]; Rate 62 g/ha, Postemergence): 5
- Crabgrass plant response rating ([5]; Rate 62 g/ha): 5
- Plant response rating, Crabgrass ([5]; Rate 125 g/ha, Postemergence): 6
- Crabgrass plant response rating ([5]; Rate 125 g/ha): 7
- Plant response rating, Crabgrass ([5]; Rate 250 g/ha, Postemergence): 9
- Plant response rating, Crabgrass [5, 19]: 9
- Wheat plant response rating ([6]; Rate 62 g/ha, Postemergence): 4
- Wheat plant response rating ([6]; Rate 62 g/ha, Preemergence): 1
- Wheat plant response rating ([6]; Rate 125 g/ha, Postemergence): 5
- Plant response rating, Wheat ([6]; Rate 125 g/ha, Preemergence): 4
- Plant response rating, Wheat ([6]; Rate 250 g/ha, Postemergence): 5
- Plant response rating, Wheat [6, 19]: 4
- Plant response rating, Giant foxtail ([7]; Rate 62 g/ha, Postemergence): 2
- Giant foxtail plant response rating ([7]; Rate 62 g/ha, Preemergence): 5
- Giant foxtail plant response rating ([7]; Rate 125 g/ha, Postemergence): 5
- Giant foxtail plant response rating ([7]; Rate 125 g/ha, Preemergence): 8
- Plant response rating, Giant foxtail ([7]; Rate 250 g/ha, Postemergence): 5
- Plant response rating, Giant foxtail [7, 19]: 9
- Plant response rating, Cocklebur ([8]; Rate 62 g/ha, Postemergence): 7
- Cocklebur plant response rating ([8]; Rate 62 g/ha): 0
- Plant response rating, Cocklebur ([8]; Rate 125 g/ha, Postemergence): 7
- Cocklebur plant response rating ([8]; Rate 125 g/ha): 0
- Plant response rating, Cocklebur ([8]; Rate 250 g/ha, Postemergence): 9
- Plant response rating, Cocklebur [8, 19]: 2
- Plant response rating, B. signalgrass ([9]; Rate 62 g/ha, Postemergence): 2
- B. signalgrass plant response rating ([9]; Rate 62 g/ha): 0
- Plant response rating, B. signalgrass ([9]; Rate 125 g/ha, Postemergence): 3
- B. signalgrass plant response rating ([9]; Rate 125 g/ha): 1
- Plant response rating, B. signalgrass ([9]; Rate 250 g/ha, Postemergence): 4
- Plant response rating, B. signalgrass ([9]; Rate 250 g/ha, Postemergence as printed in head r139 (second section for compounds 26-50)): 5
- Plant response rating, Bedstraw ([10]; Rate 62 g/ha, Postemergence): 9
- Bedstraw plant response rating ([10]; Rate 62 g/ha): 4
- Bedstraw plant response rating ([10]; Rate 125 g/ha): 7
- Plant response rating, Bedstraw [10, 19]: 8
- Plant response rating, Soybean (soybean (Glycine max); Rate 62 g/ha, Postemergence): 6
- Soybean plant response rating (soybean (Glycine max); Rate 62 g/ha, Preemergence): 0
- Soybean plant response rating (soybean (Glycine max); Rate 125 g/ha, Postemergence): 7
- Plant response rating, Soybean (soybean (Glycine max); Rate 125 g/ha, Preemergence): 1
- Plant response rating, Soybean (soybean (Glycine max); Rate 250 g/ha, Postemergence): 7
- Plant response rating, Soybean (soybean (Glycine max); [19]): 1
- Plant response rating, Morningglory ([11]; Rate 62 g/ha, Postemergence): 2
- Morningglory plant response rating ([11]; Rate 62 g/ha, Preemergence): 1
- Morningglory plant response rating ([11]; Rate 125 g/ha, Postemergence): 6
- Morningglory plant response rating ([11]; Rate 125 g/ha, Preemergence): 3
- Plant response rating, Morningglory ([11]; Rate 250 g/ha, Postemergence): 9
- Plant response rating, Morningglory [11, 19]: 4
- Wild oats plant response rating (wild oat (Avena fatua); Rate 62 g/ha, Postemergence): 5
- Wild oats plant response rating (wild oat (Avena fatua); Rate 62 g/ha, Preemergence): 2
- Wild oats plant response rating (wild oat (Avena fatua); Rate 125 g/ha, Postemergence): 6
- Plant response rating, Wild oats (wild oat (Avena fatua); Rate 125 g/ha, Preemergence): 6
- Plant response rating, Wild oats (wild oat (Avena fatua); Rate 250 g/ha, Postemergence): 7
- Plant response rating, Wild oats (wild oat (Avena fatua); [19]): 7
- Plant response rating, Blackgrass ([12]; Rate 62 g/ha, Postemergence): 5
- Blackgrass plant response rating ([12]; Rate 62 g/ha): 4
- Plant response rating, Blackgrass ([12]; Rate 125 g/ha, Postemergence): 6
- Blackgrass plant response rating ([12]; Rate 125 g/ha): 4
- Plant response rating, Blackgrass ([12]; Rate 250 g/ha, Postemergence): 6
- Plant response rating, Blackgrass [12, 19]: 6
- Plant response rating, Redroot pigweed ([13]; Rate 62 g/ha, Postemergence): 9
- Redroot pigweed plant response rating ([13]; Rate 62 g/ha, Preemergence): 8
- Redroot pigweed plant response rating ([13]; Rate 125 g/ha, Postemergence): 9
- Redroot pigweed plant response rating ([13]; Rate 125 g/ha, Preemergence): 8
- Plant response rating, Redroot pigweed ([13]; Rate 250 g/ha, Postemergence): 9
- Plant response rating, Redroot pigweed [13, 19]: 10
- Plant response rating, Sugarbeets ([14]; Rate 62 g/ha, Postemergence): 9
- Sugarbeets plant response rating ([14]; Rate 62 g/ha, Preemergence): 6
- Sugarbeets plant response rating ([14]; Rate 125 g/ha, Postemergence): 9
- Plant response rating, Sugarbeets ([14]; Rate 125 g/ha, Preemergence): 6
- Plant response rating, Sugarbeets ([14]; Rate 250 g/ha, Postemergence): 9
- Plant response rating, Sugarbeets [14, 19]: 9

Reference: patent US6525001B1, “Substituted pyrimidine and pyridine herbicides” (Mid-American Commercialization Corporation, priority 1997, dated 2003)
